Here are results for one compound from PMC9410914 (2022).

The test system of this assay is WT R-mRNA+30 (I-2S8) (RNA, riboswitch) GGGCAGUGAGCAACAAAAUGCUCACCUGGGUCGCAGUAACCCCAGUUAACAAAACAAGGGAGGUAAUUUUGUGCCCAAAAAAAGAAUAAAAGAUUUAGCU
As to the kind of experiment: single-molecule TIRF (SiM-KARB), 30S binding/dissociation rates vs preQ1, global Hill fit. As to conditions: K+ 100 mM, Mg2+ 5 mM, NH4+ 5 mM, Ca2+ 0.5 mM; apparent; Tris-polymix pH 7.5, spermidine, putrescine; 20 nM Cy5-30S ribosomal subunits present; indirect readout.

Consider `NCc1c[nH]c2nc(N)[nH]c(=O)c12`, for which the K1/2 is reported as ~ 48 nM.
